# Source: patent US20170283440A1, “CARM1 INHIBITORS AND USES THEREOF” (Epizyme, Inc., priority 2014, published 2017)
# Like-named read-outs stand apart in the source and are kept apart here.
# Columns and labels:
# Human CARM1 (PRMT4) = target: T1, Human CARM1 (PRMT4) (Homo sapiens, UniProt Q86X55); test: CARM1 enzyme assay on peptide substrate (3H-SAM Flashplate); assay type: biochemical; details: CARM1 0.25 nM, 3H-SAM 30 nM, peptide 250 nM; read-out: Biochem IC50
# T1 construct: Flag-CARM1-His was eluted with 200 ug/ml FLAG peptide in buffer A; made in house; host or cells: HEK 293F cells infected with recombinant baculovirus (pFastBacMam)
# From the text: S-adenosylmethionine (SAM), S-adenosylhomocysteine (SAH), bicine, Tween20, dimethylsulfoxide (DMSO), bovine skin gelatin (BSG), sodium butyrate and Tris(2-carboxyethyl)phosphine hydrochloride solution (TCEP) were purchased from Sigma-Aldrich at the highest level of purity possible. ^3H-SAM was purchase from American Radiolabeled Chemicals with a specific activity of 80 Ci/mmol. 384-well streptavidin Flashplates were purchased from PerkinElmer.
# Peptide representative of human histone H3 residues 16-30 was synthesized with an N-terminal linker-affinity tag motif and a C-terminal amide cap by 21st Century Biochemicals. The peptide was purified by high-performance liquid chromatography (HPLC) to greater than 95% purity and confirmed by liquid chromatography mass spectrometry (LC-MS). The sequence was Biot-Ahx-[…]-amide and contained a monomethylated arginine at position 26 (SEQ ID NO.:1).
# Human CARM1 (PRMT4) (NM_199141.1) transcript clone was amplified from an HEK 293 cDNA library, incorporating a flanking 5′ sequence encoding a FLAG tag ([…]) (SEQ ID NO.:2) fused directly to Ala 2 of CARM1 and 3′ sequence encoding a hexa His sequence ([…]) (SEQ ID NO.:3) fused directly to Ser 608. The gene sequence encoding isoform1 containing a deletion of amino acids 539-561 was amplified subsequently and subcloned into pFastBacMam (Viva Biotech).
# Recombinant baculovirus were generated according to Bac-to-Bac kit instructions (Life Technologies). Protein over-expression was accomplished by infecting exponentially growing HEK 293F cell culture at 1.3×10^6 cell/ml with virus (MOI=10) in the presence of 8 mM sodium butyrate. Infections were carried out at 37° C. for 48 hours, harvested by centrifugation, and stored at −80° C. for purification.
# Column was washed with 500 mM NaCl in buffer A and Flag-CARM1-His was eluted with 200 ug/ml FLAG peptide in buffer A. Pooled fractions were dialyzed in 20 mM Tris, 150 mM NaCl, 5% glycerol and 1 mM DTT, pH 7.8. The purity of recovered protein was 94.
# The assays were all performed in a buffer consisting of 20 mM Bicine (pH=7.6), 1 mM TCEP, 0.005% BSG, and 0.002% Tween 20, prepared on the day of use. Compounds in 100% DMSO (1 ul) were spotted into a polypropylene 384-well V-bottom plates (Greiner) using a Platemate Plus outfitted with a 384-channel head (Thermo Scientific). DMSO (1 ul) was added to Columns 11, 12, 23, 24, rows A-H for the maximum signal control and 1 ul of SAH, a known product and inhibitor of CARM1, was added to columns 11, 12, 23, 24, rows I—P for the minimum signal control. A cocktail (40 ul) containing the CARM1 enzyme was added by Multidrop Combi (Thermo-Fisher). The compounds were allowed to incubate with CARM1 for 30 min at room temperature, then a cocktail (10 ul) containing ^3H-SAM and peptide was added to initiate the reaction (final volume=51 ul). The final concentrations of the components were as follows: CARM1 was 0.25 nM, ^3H-SAM was 30 nM, peptide was 250 nM, SAH in the minimum signal control wells was 1 mM, and the DMSO concentration was 2%. The assays were stopped by the addition of non-radiolabeled SAM (10 ul) to a final concentration of 300 uM, which dilutes the ^3H-SAM to a level where its incorporation into the peptide substrate is no longer detectable. 50 ul of the reaction in the 384-well polypropylene plate was then transferred to a 384-well Flashplate and the biotinylated peptides were allowed to bind to the streptavidin surface for at least 1 hour before being washed once with 0.1% Tween20 in a Biotek ELx405 plate washer. The plates were then read in a PerkinElmer TopCount plate reader to measure the quantity of ^3H-labeled peptide bound to the Flashplate surface, measured as disintegrations per minute (dpm) or alternatively, referred to as counts per minute (cpm).
# where dpm=disintegrations per minute, cmpd=signal in assay well, and min and max are the respective minimum and maximum signal controls. […]
# [1] = system: asymmetric di-methyl PABP1 in RKO cells; test: RKO methylation assay (In Cell Western for asymmetric di-methyl PABP1); assay type: cell-based; details: 48 hours incubation, read-out: Cellular IC50
# From the text: RKO adherent cells were purchased from ATCC (American Type Culture Collection), Manassas, Va., USA. DMEM/Glutamax medium, penicillin-streptomycin, heat inactivated fetal bovine serum, 0.05% trypsin and D-PBS were purchased from Life Technologies, Grand Island, N.Y., USA. Odyssey blocking buffer, 800CW goat anti-rabbit IgG (H+L) antibody, and Licor Odyssey infrared scanner were purchased from Licor Biosciences, Lincoln, Nebr., USA. Asymmetric di-methyl PABP1 antibody was purchased from Cell Signaling Technology, Danvers, Mass., USA. Methanol was purchased from VWR, Franklin, Mass., USA. 10% Tween 20 was purchased from KPL, Inc., Gaithersburg, Md., USA. Paraformaldehyde (PFA) was purchased from EM Sciences. DRAQ5 was purchased from Biostatus Limited, Leicestershire, UK.
# RKO adherent cells were maintained in growth medium (DMEM/Glutamax medium supplemented with 10% v/v heat inactivated fetal bovine serum and 100 units/mL penicillin-streptomycin) and cultured at 37° C. under 5% CO2.
# Compound (100 nL) from a 96-well source plate was added directly to 384 well cell plate. Plates were incubated at 37° C., 5% CO2 for 48 hours. After two days of incubation, plates were brought to room temperature outside of the incubator for ten minutes and blotted on paper towels to remove cell media. Cells were fixed for 20 minutes at room temperature by adding 50 ul of 8% PFA followed by aspiration of supernatant with the Biotek EL406 plate washer. Cells were then permeabilized by addition of 50 μL of ice cold 100% methanol directly to each well and incubated for 30 min at room temperature. After 30 min, plates were transferred to a Biotek EL406 plate washer and washed 2 times with 100 μL per well of wash buffer (IX PBS). Next 60 μL per well of Odyssey blocking buffer (Odyssey Buffer with 0.1% Tween 20 (v/v)) were added to each plate and incubated 1 hour at room temperature. Blocking buffer was removed and 20 μL per well of primary antibody was added (asymmetric-methyl PABP1) diluted 1:400 in Odyssey buffer with 0.1% Tween 20 (v/v)) and plates were incubated overnight (16 hours) at 4° C. Plates were washed 5 times with 100 μL per well of wash buffer. Next 20 μL per well of secondary antibody was added (1:800 800CW goat anti-rabbit IgG (H+L) antibody, 1:2000 DRAQ5 in Odyssey buffer with 0.1% Tween 20 (v/v)) and incubated for 1 hour at room temperature. The plates were washed 5 times with 100 μL per well wash buffer then 2 times with 100 μL per well of water. Plates were allowed to dry at room temperature then imaged on the Licor Odyssey machine which measures integrated intensity at 700 nm and 800 nm wavelengths. Both 700 and 800 channels were scanned.
# First, the ratio for each well was determined by:
# Each plate included fourteen control wells of DMSO only treatment (minimum inhibition) as well as fourteen control wells for maximum inhibition treated with 20 μM of a reference compound. The average of the ratio values for each control type was calculated and used to determine the percent […] for each test well in the plate. Reference compound was serially diluted three-fold in DMSO for a total of nine test concentrations, beginning at 20 μM.
# Percent inhibition was determined and IC50 curves were generated using triplicate wells per concentration of compound.
# T1 sequence (Q86X55 other isoform, or with tags, fused parts or gaps): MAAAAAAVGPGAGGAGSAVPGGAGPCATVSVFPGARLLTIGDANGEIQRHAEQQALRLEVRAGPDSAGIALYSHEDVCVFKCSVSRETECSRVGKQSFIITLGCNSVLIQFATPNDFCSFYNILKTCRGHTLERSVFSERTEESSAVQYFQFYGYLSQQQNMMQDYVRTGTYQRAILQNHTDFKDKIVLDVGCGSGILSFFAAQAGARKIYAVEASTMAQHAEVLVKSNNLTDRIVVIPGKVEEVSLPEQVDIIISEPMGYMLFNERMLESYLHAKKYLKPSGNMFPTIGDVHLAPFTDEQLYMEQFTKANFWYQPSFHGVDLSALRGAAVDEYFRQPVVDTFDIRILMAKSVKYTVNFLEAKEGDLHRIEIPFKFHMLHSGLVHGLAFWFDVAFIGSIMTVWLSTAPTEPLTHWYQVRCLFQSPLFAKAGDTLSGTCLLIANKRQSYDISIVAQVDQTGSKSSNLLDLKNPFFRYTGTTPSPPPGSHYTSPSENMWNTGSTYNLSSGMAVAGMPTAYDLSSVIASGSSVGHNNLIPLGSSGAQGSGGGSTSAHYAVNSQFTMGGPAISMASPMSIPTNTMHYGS
Compound,IC50 (Human CARM1 (PRMT4)) [µM],IC50 ([1]; Homo sapiens) [µM],IC50 [1] [µM]
Cc1nn(C(C)C)c2nc(-c3cccc(OCC(O)CN)c3)cc(N3CCOCC3)c12 (stereo not drawn) [Example 1-2],< 0.1,10 to 20,
CNCC(O)COc1cccc(-c2cc(C(=O)NCc3c(C)cc(C)[nH]c3=O)c3cnn(C(C)C)c3n2)c1 (stereo not drawn) [Example 1-3],< 0.1,> 20,
CCOC(=O)c1c(-c2cccc(OCC(O)CNC)c2)nc2c(cnn2C(C)C)c1N1CCOCC1 (stereo not drawn) [Example 1-5],0.1 to 1,> 20,
CNCC(O)COc1cc(OC)cc(-c2cc(-c3cnc4[nH]ccc4c3)n3ncc(C(C)C)c3n2)c1 (stereo not drawn) [Example 1-6],< 0.1,> 20,
CNCC(O)COc1cc(OC)cc(-c2cc(-c3cnc4[nH]ccc4c3)nc3c(C(C)C)cnn23)c1 (stereo not drawn) [Example 1-7],< 0.1,> 20,
CC(C)n1ncc2c(N3CCOCC3)cc(-c3cccc(OC[C@H](O)CN)c3)nc21 [Example 1-8],< 0.1,10 to 20,
CNCC(O)COc1cc(Cl)cc(-c2cc(N(C)C3CCOCC3)n3ncc(C4CC4)c3n2)c1 (stereo not drawn) [Example 1-9],< 0.1,> 20,
CNCC(O)COc1cccc(-c2cc(NC3CCOCC3)c3c(C4CC4)nn(C(C)C)c3n2)c1 (stereo not drawn) [Example 2-2],< 0.1,> 20,
CNCC(O)COc1cc(Cl)cc(-c2cc(NC3CCOCC3)c3cnn(C(C)C)c3n2)c1 (stereo not drawn) [Example 2-4],< 0.1,> 20,
CNCC(O)COc1cc(OC)cc(-c2cc(N(C)C3CCOCC3)n3ncc(C(C)C)c3n2)c1 (stereo not drawn) [Example 2-6],< 0.1,5 to 10,
CNCC(O)COc1cc(Cl)cc(-c2cc(-c3cc[nH]n3)nc3c(C(C)C)cnn23)c1 (stereo not drawn) [Example 2-7],< 0.1,> 20,
Cc1cc(C)c(CNC(=O)c2cc(-c3cccc(OCC(O)CN)c3)nc3c2cnn3C(C)C)c(=O)[nH]1 (stereo not drawn) [Example 2-8],< 0.1,> 20,
CNCC(O)COc1cc(OC)cc(-c2cc(N(C)C3CCOCC3)n3ncc(C4CC4)c3n2)c1 (stereo not drawn) [Example 2-9],< 0.1,> 20,
CNCC(O)COc1cccc(-c2nc(N3[C@@H]4CC[C@H]3COC4)c3cnn(C4CC4)c3n2)c1 (stereo partly drawn) [Example 5-5],0.1 to 1,> 20,

# Second part, the compound after the results:
IC50 (Human CARM1 (PRMT4)) [µM],IC50 ([1]; Homo sapiens) [µM],IC50 [1] [µM],Compound
< 0.1,10 to 20,,CNCC(O)COc1cccc(-c2cc(N3CCOCC3)c3c(C)nn(C(C)C)c3n2)c1 (stereo not drawn) [Example 3-2]
0.1 to 1,> 20,,CC(C)n1ncc2c(C(=O)NCC3CCOCC3)cc(-c3cccc(OCC(O)CN)c3)nc21 (stereo not drawn) [Example 3-3]
< 0.1,10 to 20,,CNCC(O)COc1cc(OC)cc(-c2cc(N(C)c3cncnc3)c3cnn(C(C)C)c3n2)c1 (stereo not drawn) [Example 3-4]
< 0.1,,5 to 10,CNCC(O)COc1cccc(-c2nc(NC3CCOCC3)c3cnn(C(C)(C)C)c3n2)c1 (stereo not drawn) [Example 3-5]
< 0.1,> 20,,CNCC(O)COc1cc(-c2cc(N3CCOCC3)n3ncc(C(C)C)c3n2)cc(C2CC2)c1 (stereo not drawn) [Example 3-6]
< 0.1,10 to 20,,CNCC(O)COc1cc(OC)cc(-c2cc(N3CCOCC3)nc3c(C4CC4)cnn23)c1 (stereo not drawn) [Example 3-7]
0.1 to 1,> 20,,CNCC(O)COc1cccc(-c2cc(NCC#N)c3cnn(C(C)C)c3n2)c1 (stereo not drawn) [Example 3-8]
< 0.1,10 to 20,,CNCC(O)COc1cccc(-c2cc(N(C)Cc3ccccn3)c3cnn(C(C)C)c3n2)c1 (stereo not drawn) [Example 3-9]
< 0.1,10 to 20,,CNCC(O)COc1cccc(-c2cc(NC3CCOCC3)c3c(C)nn(C(C)C)c3n2)c1 (stereo not drawn) [Example 4-2]
< 0.1,10 to 20,,Cc1cc(OCC(O)CN)cc(-c2cc(N3CCOCC3)c3cnn(C(C)C)c3n2)c1 (stereo not drawn) [Example 4-4]
< 0.1,> 20,,CNCC(O)COc1cccc(-c2cc(-c3cnc4[nH]ccc4c3)nc3c(C(C)C)cnn23)c1 (stereo not drawn) [Example 4-7]
< 0.1,> 20,,CC(C)c1cnn2c(N3CCOCC3)cc(-c3cccc(OCC(O)CN)c3)nc12 (stereo not drawn) [Example 4-8]
< 0.1,> 20,,CNCC(O)COc1cccc(-c2cc(N(C)C3CCOCC3)nc(N3CCOCC3)n2)c1 (stereo not drawn) [Example 4-9]
0.1 to 1,> 20,,CNCC(O)COc1cccc(-c2cc(NC3CCOCC3)c3c(C#N)nn(C(C)C)c3n2)c1 (stereo not drawn) [Example 5-2]
< 0.1,10 to 20,,COc1cc(OCC(O)CN)cc(-c2cc(N3CCOCC3)c3cnn(C(C)C)c3n2)c1 (stereo not drawn) [Example 5-4]
< 0.1,> 20,,CNCC(O)COc1cc(OC)cc(-c2cc(C)n3ncc(C(C)C)c3n2)c1 (stereo not drawn) [Example 5-6]
< 0.1,,,CNCC(O)COc1cccc(-c2cc(N(C)[C@H]3CCOC3)n3ncc(C(C)C)c3n2)c1 (stereo partly drawn) [Example 14-6]
< 0.1,,,CNCC(O)COc1cccc(-c2cc(N(C)C3CCOCC3)n3ncc(C(C)(C)C)c3n2)c1 (stereo not drawn) [Example 16-8]
< 0.1,,,CNCC(O)COc1cc(OC)cc(-c2cc(N(C)C3CCOCC3)n3ncc(C4CC4)c3n2)c1 (stereo not drawn) [Example 44-6]
